Experimental data published in US11077205B2, “Synthetic compound for improving efficiency of transfection” (Klinikum der Universität München, priority 2016, dated 2021).
The star is where a group is joined. ξ: configuration not given here. Lipoyl(6ξ) = O=C(CCCCC1CCSS1)*

Columns and labels:
BEAS-2B cells = test: In vitro transfection, Metridia luciferase assay in BEAS-2B cells; assay type: cell-based, human
Procedure: (§1) Preparation of IVT-mRNA/pDNA containing binary and ternary complexes: Stock solutions of P704 (5 mg/ml) and synthetic compound (1 mg/ml) were prepared in nuclease-free water (NF water) and stored at 4° C. P704 based binary complexes (P704/IVT-mRNA or P704/pDNA) were prepared by mixing equal volumes of diluted P704 stock solution with IVT-mRNA or pDNA solution at the desired concentration in 2× Tyrode's solution. Ternary complexes were generated via two-steps incubation. Briefly, P704 solutions at certain concentration (defined as weight/weight (w/w) ratio between P704 and nucleic acids) in NF-water were mixed with equal volume of synthetic compound solution at specific concentration (defined as N/P ratio, namely the […] between nitrogen residues in synthetic compound and nucleic acids phosphate groups). After 20 min incubation at room temperature (RT), same volumes of nucleic acid (IVT-mRNA or pDNA) solution in NF-water were added to the above P704/synthetic compound solution and mixed gently by pipetting up and down several times. Subsequently, complexes were incubated for another 20 min at RT prior to further use. IVT-mRNA or pDNA solutions in NF-water were complexed with brPEI (25 kDa) at an optimum N/P ratio, the resulting complexes were served as a control polyplex. As for control lipoplex, Lipofectamine® 2000 complexes were prepared according to the manufacturer's instructions using optimum concentration. In order to prepare DOTAP/DOPE liposomes, a lipid film was formed by removing the chloroform solvent in DOTAP/DOPE mixture solution under nitrogen atmosphere. The lipid film is hydrated with NF-water to make the final concentration 10 mM DOTAP/DOPE. The DOTAP/DOPE liposome formulation was formed by mixing 250 μl of pDNA encoding for firefly luciferase and cystic fibrosis transmembrane conductance regulator (fLUC-CFTR pDNA) (150 μg) containing solution and 250 μl diluted DOTAP/DOPE solution (190 μl of 10 mM DOTAP/DOPE liposome and 60 μl NF-water). The mix solution was incubated at RT for 20 min prior to further use.
(§2) In vitro transfection: For the luciferase assay, cells were seeded at a density of 1.8×10^4/well (BEAS-2B) or 3.5×10^4/well (16HBE) in 96-well plates 24 h before transfection to reach 60-80% confluence. Following removal of growth medium, cells were rinsed with DPBS (Gibco, Germany). 170 μl of fresh serum-free OptiMEM (Gibco, Germany) were added per well, and subsequently 30 μl of IVT-mRNA or pDNA containing complexes prepared, as described above, corresponding to 400 ng IVT-mRNA or pDNA per well, were added in replicates of five. After 4 h of incubation at 37° C. in a humidified 5% CO2-containing atmosphere, the transfection medium was replaced with culture medium supplemented with 10% FBS and 1% (v/v) penicillin/streptomycin. Luciferase activity in 50 μl supernatants from transfected cells was assayed with Metridia luciferase substrate (coelenterazine, Invivogen, France) after 24 h using a FLUOstar microplate reader (BMG Labtech, Germany) and its activity is expressed in relative light units (RLU). In all cases each sample was measured on at least two other occasions to ensure the reproducibility of the data.
The same transfection procedure as described above was applied. Luciferase activity was expressed in RLU. The data are given as the mean±standard deviation (SD) of the mean (n>5) in FIGS. 12a to 12k.
(§3) The concentration of P704 in ternary complexes for treatment of BEAS-2B cells was 50 (w/w) and the concentration of P704 in ternary complexes for treatment of 16HBE cells was 63 (w/w). The N/P ratios of the compounds in ternary complexes were as follows:
BEAS-2B cells: Compound 0 (DL) at 30, compound 1 at 20, compounds 3 and 11 at 15, compounds 4 and 6 at 10, compounds 2 and 9 at 5, compounds 5, 7, 8 and 10 at 2.5.
The same transfection procedure as described above was applied. Luciferase activity was expressed in RLU. […]

16HBE cells = test: In vitro transfection, Metridia luciferase assay in 16HBE cells; assay type: cell-based, human
Procedure: as §1
as §2, with “data. […]” for “data.”
as §3
16HBE cells: Compound 0 (DL) at 20, compounds 1 and 11 at 15, compounds 2 and 3 at 10, compounds 4, 6, 8, and 9 at 5, compounds 5, 7, and 10 at 2.5.
The same transfection procedure as described above was applied.
The concentration of P704 in ternary complexes was 63 (w/w). The N/P ratio of the compounds in certain ternary complexes was as follows:
16HBE cells: Compound 1, 8, and 11 at 20; compound 0 (DL) and 3 at 10; compound 2 at 7.5; compounds 4, 6, 9, and 10 at 5, compounds 5 and 7 at 2.5. […]

airway epithelium cells = test: In vitro transfection study on cultured airway epithelium cells (luciferase, RLU/mg cellular protein); assay type: cell-based; settings: ternary complexes formed by P704, a nucleic acid and the compound
Procedure: as §2, with “Luciferase activity in 50 μl supernatants from transfected cells was” left out, “[…]).” for “Germany) and its activity is expressed in relative light units (RLU).”

| Substance | pDNA expression relative to compound 3 containing ternary complex (BEAS-2B cells; MetLuc pDNA, FIG. 14a) [times] | pDNA expression compared with compound 3 containing ternary complex (16HBE cells; other days than day 2) | transfection efficiencies of ternary complexes with compound 0 (DL) versus compound 0 (R) (airway epithelium cells) | IVT-mRNA transfection efficiency of P704 ternary complex (in words) (BEAS-2B cells; MetLuc mRNA, P704 63 (w/w), optimum N/P, FIG. 17a) | pDNA transfection efficiency of P704 ternary complex (in words) (BEAS-2B cells; MetLuc pDNA, P704 50 (w/w), optimum N/P, FIG. 14a) | IVT-mRNA transfection efficiency of P704 ternary complex (in words) (16HBE cells; MetLuc mRNA, P704 63 (w/w), optimum N/P, FIG. 17b) | pDNA transfection efficiency of P704 ternary complex (in words) (16HBE cells; MetLuc pDNA, P704 63 (w/w), optimum N/P, FIG. 14b) |
| --- | --- | --- | --- | --- | --- | --- | --- |
| NH2-VKRKKKPKKRRRRKKWK(DL-lipoic acid)-CONH2 (H-VKRKKKPKKRRRRKKWK(Lipoyl(6ξ))-NH2; SMILES CC(C)[C@H](N)C(=O)N[C@@H](CCCCN)C(=O)N[C@@H](CCCNC(=N)N)C(=O)N[C@@H](CCCCN)C(=O)N[C@@H](CCCCN)C(=O)N[C@@H](CCCCN)C(=O)N1CCC[C@H]1C(=O)N[C@@H](CCCCN)C(=O)N[C@@H](CCCCN)C(=O)N[C@@H](CCCNC(=N)N)C(=O)N[C@@H](CCCNC(=N)N)C(=O)N[C@@H](CCCNC(=N)N)C(=O)N[C@@H](CCCNC(=N)N)C(=O)N[C@@H](CCCCN)C(=O)N[C@@H](CCCCN)C(=O)N[C@@H](Cc1c[nH]c2ccccc12)C(=O)N[C@@H](CCCCNC(=O)CCCCC1CCSS1)C(N)=O) [compound 0 (DL)] | ~5 | significantly higher | similar |  |  |  |  |
| KETWWETWWTEWWTEW-KKKKRRRRRKKKK-GACSERSMNFCG (KETWWETWWTEWWTEWKKKKRRRRRKKKKGACSERSMNFCG) [compound 9] |  |  |  | more superior to other counterparts | highest transfection efficiency | more superior to other counterparts | overwhelming signals |
